Measured values reported in paper PMC9851200, “Multiparameter phenotypic screening for endogenous TFEB and TFE3 translocation identifies novel chemical series modulating lysosome function” (Autophagy, 2022).

What was measured:
Assay type in all cases: binding
[1] = target: kinases (KINOMEscan panel) (Homo sapiens, UniProt P10721, L576P); conditions: KIT(L576P); NEW KINOMEscan
[2] = target: T1, kinases (KINOMEscan panel) (Homo sapiens, UniProt P54762); conditions: kinase EPHB1; NEW KINOMEscan
T1 sequence (P54762 18-984): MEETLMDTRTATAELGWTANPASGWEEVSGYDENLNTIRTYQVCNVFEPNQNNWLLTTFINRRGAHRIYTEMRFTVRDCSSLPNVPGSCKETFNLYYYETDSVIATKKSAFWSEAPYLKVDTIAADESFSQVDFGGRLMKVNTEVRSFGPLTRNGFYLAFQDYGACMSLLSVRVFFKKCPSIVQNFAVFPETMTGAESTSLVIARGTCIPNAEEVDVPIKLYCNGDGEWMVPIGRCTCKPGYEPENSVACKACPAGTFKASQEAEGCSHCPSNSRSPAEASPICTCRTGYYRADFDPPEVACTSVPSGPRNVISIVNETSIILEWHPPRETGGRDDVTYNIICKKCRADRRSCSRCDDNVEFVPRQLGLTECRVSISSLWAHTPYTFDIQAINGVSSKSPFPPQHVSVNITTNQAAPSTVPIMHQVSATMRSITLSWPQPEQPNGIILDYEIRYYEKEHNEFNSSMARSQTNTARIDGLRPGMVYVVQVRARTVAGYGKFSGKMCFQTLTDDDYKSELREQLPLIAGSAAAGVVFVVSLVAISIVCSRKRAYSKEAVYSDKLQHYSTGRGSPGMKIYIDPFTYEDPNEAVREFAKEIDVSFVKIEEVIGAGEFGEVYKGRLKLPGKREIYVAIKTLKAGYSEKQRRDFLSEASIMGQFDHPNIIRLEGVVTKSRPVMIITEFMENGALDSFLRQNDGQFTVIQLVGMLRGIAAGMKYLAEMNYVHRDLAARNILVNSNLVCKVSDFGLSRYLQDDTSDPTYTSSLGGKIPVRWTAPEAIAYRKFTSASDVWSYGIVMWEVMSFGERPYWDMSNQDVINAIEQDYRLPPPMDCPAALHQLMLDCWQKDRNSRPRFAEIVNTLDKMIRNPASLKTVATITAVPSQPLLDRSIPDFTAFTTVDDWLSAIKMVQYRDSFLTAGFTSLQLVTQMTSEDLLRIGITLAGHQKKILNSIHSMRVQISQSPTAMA

[3] = target: T2, kinases (KINOMEscan panel) (Homo sapiens, UniProt Q16566); conditions: CAMK4; NEW KINOMEscan
T2 sequence (Q16566 1-473): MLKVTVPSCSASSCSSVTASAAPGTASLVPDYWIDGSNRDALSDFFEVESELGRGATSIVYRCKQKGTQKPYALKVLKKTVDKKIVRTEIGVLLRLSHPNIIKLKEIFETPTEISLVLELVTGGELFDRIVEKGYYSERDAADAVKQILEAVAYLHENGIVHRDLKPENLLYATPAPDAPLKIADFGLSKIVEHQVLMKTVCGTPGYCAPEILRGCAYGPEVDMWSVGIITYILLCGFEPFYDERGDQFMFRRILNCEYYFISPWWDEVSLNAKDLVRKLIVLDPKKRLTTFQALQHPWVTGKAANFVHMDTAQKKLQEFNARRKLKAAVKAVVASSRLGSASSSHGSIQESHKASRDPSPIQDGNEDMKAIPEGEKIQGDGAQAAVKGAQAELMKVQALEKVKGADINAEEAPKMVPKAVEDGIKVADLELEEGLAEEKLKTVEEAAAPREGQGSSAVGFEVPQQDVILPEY

[4] = target: kinases (KINOMEscan panel) (Homo sapiens, UniProt Q8TDR2); conditions: STK35; NEW KINOMEscan
Chain of kinases (KINOMEscan panel) (Homo sapiens, UniProt Q8TDR2) (Q8TDR2 whole entry): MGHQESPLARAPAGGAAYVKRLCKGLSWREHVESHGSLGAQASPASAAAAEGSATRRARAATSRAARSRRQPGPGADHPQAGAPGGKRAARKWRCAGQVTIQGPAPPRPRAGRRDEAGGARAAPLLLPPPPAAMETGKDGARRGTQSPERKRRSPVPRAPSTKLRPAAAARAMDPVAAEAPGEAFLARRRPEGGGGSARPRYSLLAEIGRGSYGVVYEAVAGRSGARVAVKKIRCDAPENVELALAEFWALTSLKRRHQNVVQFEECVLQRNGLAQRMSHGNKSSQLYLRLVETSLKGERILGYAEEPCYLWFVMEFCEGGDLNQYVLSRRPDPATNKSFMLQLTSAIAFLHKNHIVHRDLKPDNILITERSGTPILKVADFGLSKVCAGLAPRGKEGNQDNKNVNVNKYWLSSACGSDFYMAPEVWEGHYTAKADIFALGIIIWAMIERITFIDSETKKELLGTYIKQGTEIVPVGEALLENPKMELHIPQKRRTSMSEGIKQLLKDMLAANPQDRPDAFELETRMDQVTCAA

[5] = target: T3, kinases (KINOMEscan panel) (Homo sapiens, UniProt Q9NRP7); conditions: STK36; NEW KINOMEscan
T3 sequence (Q9NRP7 1-1315): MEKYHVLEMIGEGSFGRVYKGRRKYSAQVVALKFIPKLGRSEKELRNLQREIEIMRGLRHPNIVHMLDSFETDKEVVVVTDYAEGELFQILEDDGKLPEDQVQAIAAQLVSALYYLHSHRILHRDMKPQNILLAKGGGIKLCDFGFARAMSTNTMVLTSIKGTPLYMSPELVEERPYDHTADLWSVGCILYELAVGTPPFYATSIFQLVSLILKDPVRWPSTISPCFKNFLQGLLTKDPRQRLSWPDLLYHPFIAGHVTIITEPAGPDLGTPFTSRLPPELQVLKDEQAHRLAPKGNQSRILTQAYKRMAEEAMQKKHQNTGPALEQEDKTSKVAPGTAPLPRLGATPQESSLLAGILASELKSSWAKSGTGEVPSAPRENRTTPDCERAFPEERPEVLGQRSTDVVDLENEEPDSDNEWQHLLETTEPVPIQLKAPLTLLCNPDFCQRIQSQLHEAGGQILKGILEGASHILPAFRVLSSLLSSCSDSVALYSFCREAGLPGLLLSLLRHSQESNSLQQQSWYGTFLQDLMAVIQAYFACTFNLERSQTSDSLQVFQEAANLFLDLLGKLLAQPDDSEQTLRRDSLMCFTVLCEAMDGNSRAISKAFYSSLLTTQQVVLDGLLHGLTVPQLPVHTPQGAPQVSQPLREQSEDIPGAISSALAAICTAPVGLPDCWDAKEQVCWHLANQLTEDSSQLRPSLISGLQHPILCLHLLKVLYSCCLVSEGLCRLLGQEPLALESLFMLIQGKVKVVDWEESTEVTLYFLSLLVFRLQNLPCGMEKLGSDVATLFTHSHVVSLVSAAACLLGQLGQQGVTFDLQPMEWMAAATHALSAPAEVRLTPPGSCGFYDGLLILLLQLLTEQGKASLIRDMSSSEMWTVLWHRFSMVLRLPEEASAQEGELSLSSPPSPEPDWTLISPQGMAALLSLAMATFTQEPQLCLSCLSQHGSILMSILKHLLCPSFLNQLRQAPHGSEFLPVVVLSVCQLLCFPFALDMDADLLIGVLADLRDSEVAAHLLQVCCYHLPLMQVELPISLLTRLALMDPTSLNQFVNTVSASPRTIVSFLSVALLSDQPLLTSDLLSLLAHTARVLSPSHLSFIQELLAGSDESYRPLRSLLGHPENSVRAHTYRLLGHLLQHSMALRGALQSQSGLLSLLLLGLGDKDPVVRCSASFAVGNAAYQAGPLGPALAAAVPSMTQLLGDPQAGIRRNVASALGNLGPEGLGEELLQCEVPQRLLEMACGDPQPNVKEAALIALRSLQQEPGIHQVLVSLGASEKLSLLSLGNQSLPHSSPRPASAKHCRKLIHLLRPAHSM

Chain of kinases (KINOMEscan panel) (Homo sapiens, UniProt P10721, L576P) (P10721 26-976 L576P): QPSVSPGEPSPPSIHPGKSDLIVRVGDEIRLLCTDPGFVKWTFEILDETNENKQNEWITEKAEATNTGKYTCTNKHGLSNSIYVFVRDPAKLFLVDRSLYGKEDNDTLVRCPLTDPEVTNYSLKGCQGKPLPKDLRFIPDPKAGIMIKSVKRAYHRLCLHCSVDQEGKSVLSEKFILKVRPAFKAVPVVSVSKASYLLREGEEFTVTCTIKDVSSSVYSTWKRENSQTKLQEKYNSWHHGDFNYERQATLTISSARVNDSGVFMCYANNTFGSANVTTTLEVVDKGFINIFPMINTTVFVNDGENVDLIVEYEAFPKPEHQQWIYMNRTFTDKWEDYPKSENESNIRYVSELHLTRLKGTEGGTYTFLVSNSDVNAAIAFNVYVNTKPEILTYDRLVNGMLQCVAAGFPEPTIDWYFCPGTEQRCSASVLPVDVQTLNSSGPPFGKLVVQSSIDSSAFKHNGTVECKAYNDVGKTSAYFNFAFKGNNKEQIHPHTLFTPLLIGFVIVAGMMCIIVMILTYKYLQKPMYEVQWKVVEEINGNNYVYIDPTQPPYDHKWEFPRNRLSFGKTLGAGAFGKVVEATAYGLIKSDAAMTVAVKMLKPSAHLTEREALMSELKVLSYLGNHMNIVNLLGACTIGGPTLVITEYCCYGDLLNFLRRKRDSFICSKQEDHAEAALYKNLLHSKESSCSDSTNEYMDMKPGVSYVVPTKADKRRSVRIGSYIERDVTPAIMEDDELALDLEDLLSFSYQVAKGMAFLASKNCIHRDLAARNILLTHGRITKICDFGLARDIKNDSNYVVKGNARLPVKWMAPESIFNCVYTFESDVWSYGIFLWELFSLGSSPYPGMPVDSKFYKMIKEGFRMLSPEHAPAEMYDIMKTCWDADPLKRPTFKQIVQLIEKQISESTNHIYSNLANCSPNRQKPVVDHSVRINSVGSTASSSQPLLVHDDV

SMILES | KINOMEscan KIT(L576P) [1] | KINOMEscan EPHB1 [2] | KINOMEscan CAMK4 [3] | KINOMEscan STK35 [4] | KINOMEscan STK36 [5]
Cc1cccc(-c2nc(Nc3ccc4nn(C)cc4c3)c3ccccc3n2)n1 [NK167] | 3 | 0 | 2 | 0 | 0
Cc1cccc(-c2nc(N(C)c3ccc4ncsc4c3)c3ccccc3n2)n1 [NK-161] | 0 | 14 | 7 | 0 | 7
